Holding throughout (type): physicochemical
Data set [1] can be described thus: Stability and flowability of the solid form (statement, no method given).
Data set [2] is described as follows: Karl Fischer water content. The protocol: Water content analysis was performed on Metrohm 890 Titando instrument. About 100 mg sample was added to the titrator, the water content is measured in % w/w by measuring the amount of iodine consumed as a result of reaction with water in the sample.
Data set [3] can be described thus: Thermogravimetric analysis (TGA) of Forms T14 and T15. The conditions noted are these: temperature changed from 27.1° C. to 170° C. The procedure: Procedure for Thermo Gravimetric Analysis (TGA) for Forms T14 and T15:
Thermogravimetric analysis was conducted on a TA instrument Q500 thermogravimetric analyzer. About 9.4 mg sample was placed into a tared TGA crucible and placed into a TGA furnace. The furnace was heated under nitrogen at a heating rate of 10° C./min up to 250° C.

With `N#Cc1ccnc(N2C(=O)CC[C@H]2C(=O)N(c2cncc(F)c2)[C@H](C(=O)NC2CC(F)(F)C2)c2ccccc2Cl)c1` [Form T11, Ivosidenib], in data set [1], the flowability entry is on record as “very good flowability” and the “stability of the crystalline form” value is recorded as “stable”.

As for `N#Cc1ccnc(N2C(=O)CC[C@H]2C(=O)N(c2cncc(F)c2)[C@H](C(=O)NC2CC(F)(F)C2)c2ccccc2Cl)c1` [Form T14, Ivosidenib], in data set [2], the “moisture / water content (KF Titration method)” value amounted to 2.7%. The “weight loss of the weight of the sample (TGA)” value in data set [3] is “about 2.786%”.

In the case of `N#Cc1ccnc(N2C(=O)CC[C@H]2C(=O)N(c2cncc(F)c2)[C@H](C(=O)NC2CC(F)(F)C2)c2ccccc2Cl)c1` [Form T15, Ivosidenib], the “moisture / water content (KF Titration method)” value in data set [2] is listed as 3.39%. Also, the “weight loss of the weight of the sample (TGA)” value in data set [3] is “about 3.899%”.

(Values after patent publication US11673880B2, “Solid state forms of ivosidenib” (ASSIA CHEMICAL INDUSTRIES LTD., priority 2017, dated 2023).)
